Results on 4 compounds are retold here after ChEMBL document CHEMBL1201862, “PubChem BioAssay data set” (2004).

Some test systems named below: NCI-H226; HCT-116; NCI-H460; CAKI-1; LOX IMVI; HCT-15; UACC-257; SF-295; SK-MEL-5; OVCAR-4; COLO 205; SW-620; SK-OV-3; SF-268; NCI/ADR-RES; K562; MCF7; SK-MEL-28; A498; SNB-75.
Common to all, as to assay: inhibition of tumour cell growth, NCI panel, 48 h

Molecules are shown by their SMILES.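 A five-concentration, 48-hour dose response in 96-well plates underlies each endpoint, interpolated linearly between surrounding concentrations. GI50 is the concentration that inhibits growth by half.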 Active and inactive are the calls of the source. Cut-off read from the data, not from the text of the source: active = GI50 up to about 1.1 µM and inactive = higher.

As to `NNC(=O)CCc1ccc2ccc3ccccc3c2c1`, the GI50 in the assay on NCI-H226 was 15.9 µM (inactive); with HCT-116, > 100 µM (inactive); with NCI-H460, > 100 µM (inactive); with CAKI-1, 54.3 µM (inactive); in the assay with LOX IMVI it was 98.9 µM (inactive); in the assay with HCT-15, 82 µM. Further, the GI50 is > 100 µM (inactive) in the assay with UACC-257; 78.7 µM (inactive) in the assay with SF-295; 92.3 µM (inactive) in the assay on SK-MEL-5; 74.6 µM (inactive) in the assay on OVCAR-4; > 100 µM (inactive) in the assay on COLO 205; > 100 µM (inactive) with SW-620. Moreover, the GI50 with SK-OV-3 is > 100 µM (inactive); in the assay on SF-268, 62.2 µM (inactive); in the assay on NCI/ADR-RES, 89.1 µM (inactive); with K562, > 100 µM (inactive); with MCF7, > 100 µM (inactive); in the assay on SK-MEL-28, > 100 µM (inactive). Also, the GI50 in the assay with A498 is 49.2 µM (inactive).

Consider `COc1cc(/C=C2\N=C(c3ccccc3)N(c3ccc(C(=O)c4ccccc4)cc3N3C(=O)/C(=C/c4cc(OC)c(OC)c(OC)c4)N=C3c3ccccc3)C2=O)cc(OC)c1OC`, for which the GI50 in the assay with HCT-116 was 10.6 µM (inactive); in the assay with NCI-H460, 8.49 µM (inactive); with CAKI-1 it was 22.2 µM (inactive); in the assay with LOX IMVI it was 14.3 µM (inactive); in the assay with HCT-15 it was 5.62 µM; with UACC-257, 15.2 µM (inactive). In addition, the GI50 in the assay with SF-295 was 11.7 µM (inactive); in the assay on SK-MEL-5 it was 9.33 µM (inactive); in the assay with OVCAR-4, 21.8 µM (inactive); in the assay with COLO 205 it was 16.4 µM (inactive); with SW-620 it was 7.57 µM (inactive); with SK-OV-3, 13.3 µM (inactive). In addition, the GI50 in the assay on SNB-75 is 7.36 µM (inactive); in the assay with SF-268, 20.3 µM (inactive); in the assay on NCI/ADR-RES, 7.8 µM (inactive); in the assay with K562, 4.86 µM (inactive); in the assay with MCF7, 12.6 µM (inactive); with SK-MEL-28, 18.7 µM (inactive). Also, in the assay on A498, the GI50 is 12 µM (inactive).

For `CC(C)(C)[Si](C)(C)OCC1OC(n2cnc3c(N)ncnc32)CC1OS(C)(=O)=O` (configuration not stated), the GI50 is > 100 µM (inactive) in the assay on NCI-H226; 72.1 µM (inactive) with HCT-116; > 100 µM (inactive) in the assay on NCI-H460; > 100 µM (inactive) with CAKI-1; > 100 µM (inactive) in the assay on LOX IMVI; more than 100 µM with HCT-15. Moreover, the GI50 in the assay with UACC-257, in the assay with SF-295, with OVCAR-4, in the assay on COLO 205, in the assay with SW-620 and in the assay with SK-OV-3 was > 100 µM (inactive) throughout. In addition, the GI50 with NCI/ADR-RES is > 100 µM (inactive); with K562 it was > 100 µM (inactive); in the assay on MCF7 it was > 100 µM (inactive); in the assay with SK-MEL-28, > 100 µM (inactive); in the assay on A498, 43 µM (inactive).

Regarding `COC(=S)OC1CC(n2cnc3c(N)ncnc32)OC1CO[Si](C)(C)C(C)(C)C` (configuration not stated), the GI50 with NCI-H226 is 21.8 µM (inactive); in the assay on HCT-116, 16 µM (inactive); with NCI-H460 it was 20.3 µM (inactive); in the assay on CAKI-1, > 10 µM (inactive); with LOX IMVI, 39.7 µM (inactive); in the assay with HCT-15, 16.8 µM. Besides, the GI50 is 21.3 µM (inactive) in the assay on UACC-257; 17.1 µM (inactive) in the assay with SF-295; 16.6 µM (inactive) in the assay with OVCAR-4; 17.7 µM (inactive) in the assay on COLO 205; 28.6 µM (inactive) in the assay with SW-620; 24 µM (inactive) with SK-OV-3. Further, the GI50 was 22.4 µM (inactive) in the assay with NCI/ADR-RES; 2.75 µM (inactive) in the assay on K562; 19.1 µM (inactive) in the assay on MCF7; 28.8 µM (inactive) with SK-MEL-28; 22 µM (inactive) in the assay with A498.
